Where only a bound is given, the exact number is not on record here.

The target in the first series is MAPKAP-K2 (Homo sapiens, UniProt P49137). The experiment in a line: MAPKAP-K2 enzyme activity inhibition (33P-ATP filter plate kinase assay). Also: key: +: active; ++: more active; +++: very active. The format is biochemical. The settings on record: MAPKAP-K2 inhibitory activity; assays conducted at typically 1-100 μM.
Chain of MAPKAP-K2 (P49137 whole entry): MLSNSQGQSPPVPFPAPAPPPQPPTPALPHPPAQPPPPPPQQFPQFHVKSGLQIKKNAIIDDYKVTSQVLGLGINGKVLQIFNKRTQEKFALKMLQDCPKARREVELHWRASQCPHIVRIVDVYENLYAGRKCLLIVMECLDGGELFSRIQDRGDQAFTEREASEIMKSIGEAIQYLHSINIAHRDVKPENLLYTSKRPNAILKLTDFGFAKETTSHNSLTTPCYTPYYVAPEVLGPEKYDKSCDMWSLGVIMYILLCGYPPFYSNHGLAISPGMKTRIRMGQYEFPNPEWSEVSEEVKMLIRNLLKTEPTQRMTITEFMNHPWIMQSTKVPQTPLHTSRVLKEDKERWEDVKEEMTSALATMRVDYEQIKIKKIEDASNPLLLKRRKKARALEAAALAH
As to `N[C@H]1CC[C@H](Nc2nc3ccnn3c(Nc3ccc(F)c(Cl)c3)c2Cc2ccccc2)CC1` [Compound 24], the “activity (efficacy against MAPKAP-K2)” value is listed as “+++”.
Take `CCCc1c(N[C@H]2CC[C@H](N)CC2)nc2ccnn2c1Nc1ccc(F)c(Cl)c1` [Compound 11]: the “activity (efficacy against MAPKAP-K2)” value is “+++”.
On the same count and under the same terms, under `CCc1c(N[C@H]2CC[C@H](N)CC2)nc2ccnn2c1Nc1ccc(Oc2ccc(C)cc2)cc1` [Compound 57] stands “+++”; under `CCc1c(N[C@H]2CC[C@H](N)CC2)nc2ccnn2c1Nc1ccc(OC)c(Cl)c1` [Compound 55], “+++”.
Consider `Cc1c(N[C@H]2CC[C@H](N)CC2)nc2ccnn2c1Nc1cccc(CO)c1` [Compound 97], for which the “activity (efficacy against MAPKAP-K2)” value is “+++”.
As for `Cc1c(N[C@H]2CC[C@H](N)CC2)nc2ccnn2c1Nc1cccc(Br)c1` [Compound 77], the “activity (efficacy against MAPKAP-K2)” value was “+++”.
As to `CCc1c(N[C@H]2CC[C@H](N)CC2)nc2ccnn2c1Nc1ccc(Cl)cc1` [Compound 26], the “activity (efficacy against MAPKAP-K2)” value is “+++”.
As for `CCc1c(N[C@H]2CC[C@H](N)CC2)nc2ccnn2c1Nc1ccc(OC)cc1` [Compound 28], the “activity (efficacy against MAPKAP-K2)” value was “+++”.
For the molecule `N[C@H]1CC[C@H](Nc2cc(Nc3ccc(F)c(Cl)c3)n3ncc(Br)c3n2)CC1` [Compound 2], the “activity (efficacy against MAPKAP-K2)” value is “++”.
For the molecule `N[C@H]1CC[C@H](Nc2cc(Nc3ccc(F)c(Cl)c3)n3ncc(I)c3n2)CC1` [Compound 49], the “activity (efficacy against MAPKAP-K2)” value is listed as “++”.
In the case of `CCc1c(N[C@H]2CC[C@H](N)CC2)nc2ccnn2c1Nc1ccc(F)c(Cl)c1` [Compound 23], the “activity (efficacy against MAPKAP-K2)” value is listed as “+++”.
Turning to `NC1CCC(Nc2nc3ccnn3c(Nc3ccc(F)c(Cl)c3)c2-c2ccccc2)CC1` (stereo not shown) [Compound 12], the “activity (efficacy against MAPKAP-K2)” value was “+++”.
Consider `C=CCc1c(N[C@H]2CC[C@H](N)CC2)nc2ccnn2c1Nc1ccc(F)c(Cl)c1` [Compound 19], for which the “activity (efficacy against MAPKAP-K2)” value is on record as “+++”.
Take `CCc1c(N[C@H]2CC[C@H](N)CC2)nc2ccnn2c1Nc1cccc(I)c1` [Compound 60]: the “activity (efficacy against MAPKAP-K2)” value is listed as “+++”.
Still for that read-out and setting: under `CCc1c(N[C@H]2CC[C@H](N)CC2)nc2ccnn2c1Nc1ccc(SC)cc1` [Compound 36] stands “+++”; under `C=C(C)CNc1c(CC)c(N[C@H]2CC[C@H](N)CC2)nc2ccnn12` [Compound 46], “++”; under `Cc1c(N[C@H]2CC[C@H](N)CC2)nc2ccnn2c1Nc1ccc(N2CCCCC2)cc1` [Compound 129], “+++”.
`CCc1c(N[C@H]2CC[C@H](N)CC2)nc2ccnn2c1Nc1ccc(Oc2ccccc2)cc1` [Compound 33]: the “activity (efficacy against MAPKAP-K2)” value is listed as “+++”.
As for `Cc1c(N[C@H]2CC[C@H](N)CC2)nc2ccnn2c1Nc1ccc2ncsc2c1` [Compound 112], the “activity (efficacy against MAPKAP-K2)” value was “+++”.
Turning to `Cc1c(N[C@H]2CC[C@H](N)CC2)nc2ccnn2c1Nc1ccc(-n2ccnc2)cc1` [Compound 118], the “activity (efficacy against MAPKAP-K2)” value is “+++”.
Regarding `Cc1c(N[C@H]2CC[C@H](N)CC2)nc2ccnn2c1Nc1ccccc1` [Compound 102], the “activity (efficacy against MAPKAP-K2)” value is “+++”.

In a further series the target is CDK-2 (Homo sapiens, UniProt P24941). The experiment in a line: CDK-2 enzyme activity inhibition (33P-ATP filter plate kinase assay). The format is biochemical.
Conditions: not given
An excerpt: [General Procedure for Measurement of CDK-2 Enzyme Activity Inhibition]
The term IC50 denotes the concentration that inhibits the measured activity by half. As for `CCCc1c(N[C@H]2CC[C@H](N)CC2)nc2ccnn2c1Nc1ccc(F)c(Cl)c1` [Compound 11], the 50% inhibitory concentration (IC50) was under 100 µM.
`N[C@H]1CC[C@H](Nc2cc(Nc3ccc(F)c(Cl)c3)n3ncc(Br)c3n2)CC1` [Compound 2] yielded an IC50 of under 100 µM.
In turn, `CCc1c(N[C@H]2CC[C@H](N)CC2)nc2ccnn2c1Nc1ccc(F)c(Cl)c1` [Compound 23] returned a half-maximal inhibitory concentration (IC50) of under 100 µM.
Still for that read-out and setting: the value for `NC1CCC(Nc2nc3ccnn3c(Nc3ccc(F)c(Cl)c3)c2-c2ccccc2)CC1` (stereo not shown) [Compound 12] was under 100 µM.

The series is the same for the next values; noted with them: read-out: CDK-2 inhibition IC50.
As for `CCc1c(N[C@H]2CC[C@H](N)CC2)nc2ccnn2c1Nc1ccc(Oc2ccc(C)cc2)cc1` [Compound 57], the IC50 is under 100 µM.
As for `CCc1c(N[C@H]2CC[C@H](N)CC2)nc2ccnn2c1Nc1ccc(OC)c(Cl)c1` [Compound 55], the IC50 is under 100 µM.
Consider `Cc1c(N[C@H]2CC[C@H](N)CC2)nc2ccnn2c1Nc1cccc(CO)c1` [Compound 97], for which the IC50 was under 100 µM.
`Cc1c(N[C@H]2CC[C@H](N)CC2)nc2ccnn2c1Nc1cccc(Br)c1` [Compound 77]: the half-maximal inhibitory concentration (IC50) is under 100 µM.
Consider `CCc1c(N[C@H]2CC[C@H](N)CC2)nc2ccnn2c1Nc1ccc(OC)cc1` [Compound 28], for which the IC50 is under 100 µM.
As for `N[C@H]1CC[C@H](Nc2cc(Nc3ccc(F)c(Cl)c3)n3ncc(I)c3n2)CC1` [Compound 49], the IC50 is under 100 µM.
On to `CCc1c(N[C@H]2CC[C@H](N)CC2)nc2ccnn2c1Nc1cccc(I)c1` [Compound 60], for which the 50% inhibitory concentration (IC50) was under 100 µM.
Consider `C=C(C)CNc1c(CC)c(N[C@H]2CC[C@H](N)CC2)nc2ccnn12` [Compound 46], for which the concentration for half-maximal inhibition (IC50) was under 100 µM.
Turning to `Cc1c(N[C@H]2CC[C@H](N)CC2)nc2ccnn2c1Nc1ccc(N2CCCCC2)cc1` [Compound 129], the IC50 is under 100 µM.
For the molecule `Cc1c(N[C@H]2CC[C@H](N)CC2)nc2ccnn2c1Nc1ccc2ncsc2c1` [Compound 112], the IC50 was under 100 µM.
For the molecule `Cc1c(N[C@H]2CC[C@H](N)CC2)nc2ccnn2c1Nc1ccc(-n2ccnc2)cc1` [Compound 118], the IC50 is under 100 µM.
For the molecule `Cc1c(N[C@H]2CC[C@H](N)CC2)nc2ccnn2c1Nc1ccccc1` [Compound 102], the concentration for half-maximal inhibition (IC50) is under 100 µM.

System in another series: not given
Experiment: not given
Conditions: not given
As usually defined, the melting point is the temperature, or range, at which the solid turns liquid. `CCc1c(N[C@H]2CC[C@H](N)CC2)nc2ccnn2c1Nc1ccc(Oc2ccc(C)cc2)cc1` [Compound 57]: the melting point is 102 to 104 °C.
Still for that read-out and setting: the value for `CCc1c(N[C@H]2CC[C@H](N)CC2)nc2ccnn2c1Nc1ccc(OC)c(Cl)c1` [Compound 55] was 189 to 192 °C; that for `Cc1c(N[C@H]2CC[C@H](N)CC2)nc2ccnn2c1Nc1cccc(CO)c1` [Compound 97] was 97 to 100 °C.
As for `Cc1c(N[C@H]2CC[C@H](N)CC2)nc2ccnn2c1Nc1cccc(Br)c1` [Compound 77], the melting point fell in the range of 215 to 216 °C.
Molecule `N[C@H]1CC[C@H](Nc2cc(Nc3ccc(F)c(Cl)c3)n3ncc(I)c3n2)CC1` [Compound 49] gave a melting point of 153 to 155 °C.
As for `C=CCc1c(N[C@H]2CC[C@H](N)CC2)nc2ccnn2c1Nc1ccc(F)c(Cl)c1` [Compound 19], the melting point was in the range of 176 to 178 °C.
For `CCc1c(N[C@H]2CC[C@H](N)CC2)nc2ccnn2c1Nc1cccc(I)c1` [Compound 60], the melting point is 199 to 201 °C.
The molecule `CCc1c(N[C@H]2CC[C@H](N)CC2)nc2ccnn2c1Nc1ccc(SC)cc1` [Compound 36] displayed a melting point of 190 to 192 °C.
In turn, `C=C(C)CNc1c(CC)c(N[C@H]2CC[C@H](N)CC2)nc2ccnn12` [Compound 46] registered a melting point of 91 to 93 °C.
The molecule `Cc1c(N[C@H]2CC[C@H](N)CC2)nc2ccnn2c1Nc1ccc(N2CCCCC2)cc1` [Compound 129] showed a melting point of 58 to 66 °C.
`CCc1c(N[C@H]2CC[C@H](N)CC2)nc2ccnn2c1Nc1ccc(Oc2ccccc2)cc1` [Compound 33] yielded a melting point of 147 to 149 °C.
Molecule `Cc1c(N[C@H]2CC[C@H](N)CC2)nc2ccnn2c1Nc1ccc2ncsc2c1` [Compound 112] displayed a melting point of 100 to 108 °C.
`Cc1c(N[C@H]2CC[C@H](N)CC2)nc2ccnn2c1Nc1ccc(-n2ccnc2)cc1` [Compound 118] returned a melting point of 210 to 215 °C.
Molecule `Cc1c(N[C@H]2CC[C@H](N)CC2)nc2ccnn2c1Nc1ccccc1` [Compound 102] returned a melting point of 96 to 99 °C.

A further series deals with CDK-1 (Homo sapiens, UniProt P06493). The experiment in a line: CDK-1 enzyme activity inhibition (33P-ATP filter plate kinase assay).
Chain of CDK-1 (P06493 whole entry, species assumed): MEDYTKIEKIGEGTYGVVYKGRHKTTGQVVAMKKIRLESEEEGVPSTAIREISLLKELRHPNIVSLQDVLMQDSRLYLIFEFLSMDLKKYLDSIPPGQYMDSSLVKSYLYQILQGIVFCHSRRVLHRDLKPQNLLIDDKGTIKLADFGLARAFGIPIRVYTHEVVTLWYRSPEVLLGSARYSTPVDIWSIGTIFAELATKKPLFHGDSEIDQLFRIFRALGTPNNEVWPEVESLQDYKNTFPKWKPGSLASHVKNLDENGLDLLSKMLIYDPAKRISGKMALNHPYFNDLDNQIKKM
Chain of CDK-1 (P14635 whole entry partner, species assumed): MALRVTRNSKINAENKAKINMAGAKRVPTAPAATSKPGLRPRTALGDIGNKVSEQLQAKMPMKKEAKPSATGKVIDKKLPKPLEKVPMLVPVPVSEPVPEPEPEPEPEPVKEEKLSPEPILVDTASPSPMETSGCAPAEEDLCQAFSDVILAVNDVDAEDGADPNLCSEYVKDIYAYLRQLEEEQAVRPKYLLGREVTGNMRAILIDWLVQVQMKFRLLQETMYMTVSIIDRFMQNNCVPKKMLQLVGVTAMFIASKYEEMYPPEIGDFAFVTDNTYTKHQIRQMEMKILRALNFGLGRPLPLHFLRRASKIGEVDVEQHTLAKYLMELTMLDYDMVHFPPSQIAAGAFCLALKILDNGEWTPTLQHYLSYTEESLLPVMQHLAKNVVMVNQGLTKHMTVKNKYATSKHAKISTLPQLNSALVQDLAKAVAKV
Conditions: not given
`N[C@H]1CC[C@H](Nc2nc3ccnn3c(Nc3ccc(F)c(Cl)c3)c2Cc2ccccc2)CC1` [Compound 24] registered a concentration for half-maximal inhibition (IC50) of under 100 µM.
Consider `CCCc1c(N[C@H]2CC[C@H](N)CC2)nc2ccnn2c1Nc1ccc(F)c(Cl)c1` [Compound 11], for which the IC50 is under 100 µM.
`CCc1c(N[C@H]2CC[C@H](N)CC2)nc2ccnn2c1Nc1ccc(Cl)cc1` [Compound 26] had a 50% inhibitory concentration (IC50) of under 100 µM.
`CCc1c(N[C@H]2CC[C@H](N)CC2)nc2ccnn2c1Nc1ccc(OC)cc1` [Compound 28] returned a 50% inhibitory concentration (IC50) of under 100 µM.
In turn, `N[C@H]1CC[C@H](Nc2cc(Nc3ccc(F)c(Cl)c3)n3ncc(Br)c3n2)CC1` [Compound 2] returned an IC50 of under 100 µM.
`CCc1c(N[C@H]2CC[C@H](N)CC2)nc2ccnn2c1Nc1ccc(F)c(Cl)c1` [Compound 23]: the IC50 is under 100 µM.
For `NC1CCC(Nc2nc3ccnn3c(Nc3ccc(F)c(Cl)c3)c2-c2ccccc2)CC1` (stereo not shown) [Compound 12], the IC50 is under 100 µM.
In turn, `C=CCc1c(N[C@H]2CC[C@H](N)CC2)nc2ccnn2c1Nc1ccc(F)c(Cl)c1` [Compound 19] came in with a 50% inhibitory concentration (IC50) of under 100 µM.
Take `CCc1c(N[C@H]2CC[C@H](N)CC2)nc2ccnn2c1Nc1ccc(SC)cc1` [Compound 36]: the half-inhibitory concentration (IC50) is under 100 µM.
The same measure, in the same setting: under `CCc1c(N[C@H]2CC[C@H](N)CC2)nc2ccnn2c1Nc1ccc(Oc2ccccc2)cc1` [Compound 33] stands under 100 µM.

For the origin of these results see US7557110B2, “Pyrazolo[1,5-A] pyrimidine derivatives” (Teijin Pharma Limited, priority 2003, dated 2009).
